Measured values as given in patent publication US7070796B1 (Debiopharm S.A., priority 1999, dated 2006).

Tests used:
[1] = aqueous medium
Text: Some of these tests will appear in the examples as comparatives.

Staphylococcus aureus = test: Efficacy of the antimicrobial conservation (European Pharmacopea 5.1.3); type: cell-based; settings: oxaliplatinum in solution, test of artificial contamination recommended by the Pharmacopea
Procedure: Under these conditions, the obtained results have shown a definite reduction of the staphylococcus aureus population with a Δlog of 5,99 after 24 hours.

[2] = Solvent optimization above 10 mg/ml, visual observation, with temperature variations; type: physicochemical; settings: for visual aspect of mixture: aqueous, ad 25 ml
Procedure: First it has been carried to 60° C. and maintained at this temperature under agitation during one hour. […] It was then submitted to three successive freezing with, in the interval, return to the room temperature. This solution has then staid seven days in a fridge.

| Compound | effect of the substance, mixed with or solubilised in water, on oxaliplatinum solubility [1] | antimicrobial efficacy in words (Staphylococcus aureus) | visual aspect of mixture ([2]; 400 mg oxaliplatinum and 12,5 g maltitol) | visual aspect of solution ([2]; 337,5 mg oxaliplatinum and 5 g maltitol ad 25 ml, 60° C. under agitation during one hour) | crystal formation ([2]; 337,5 mg oxaliplatinum and 5 g maltitol ad 25 ml, three successive freezing, then seven days in a fridge, return to room temperature) | visual aspect of mixture ([2]; 337,5 mg oxaliplatinum and 5 g maltitol) | dissolution in words ([2]; 379,7 mg oxaliplatinum in 25 ml glycerol to 85%) |
| --- | --- | --- | --- | --- | --- | --- | --- |
| Tween 20 | ineffective | – | – | – | – | – | – |
| N[C@@H]1CCCC[C@H]1N.O=C([O-])C(=O)[O-].[Pt+2] [oxaliplatinum] | – | antimicrobial efficacy | residues appear | clear and colorless | no crystal has been observed | clear | partly dissolve |
